pIC50: −log10 of the molar value.
Tests used:
[1] = tested on: local lymph node reaction; assay: Local lymph node weight and cell count after TDI challenge; type: in vivo, mice; conditions: topical 1a 2% or 6%, diflorasone 0.1% and 0.5%
Description: Directly after sacrifice, the ear draining lymph node (Ln. auricularis) was prepared and excised. Organ weight was determined by means of an analytical balance (Kern, Balingen, Germany). Single cell suspensions were prepared by means of a glass potter (VWR, Darmstadt, Germany) and cells were counted with a hemocytometer (Neubauer, VWR, Germany).
One of the most undesirable side-effects of corticosteroid administration is immunosuppression, which leads to the inability to effectively address parasitic infection, wound healing and tumor growth. In the current study, the local lymph node reaction after TDI challenge (lymph node weight and cell number) was determined to assess the response of immune organs.

RBL-2H3 cells = assay: Inhibition of mast cell degranulation (β-hexosaminidase release); type: cell-based; conditions: Rattus norvegicus, IgE-sensitized RBL-2H3 cells, 1 h with compound, antigen (DNP-HSA) 15 min
Excerpt: Mast cells are key effector cells involved in allergic and inflammatory diseases, and the Rat Basophilic Leukemia clone 2H3 (RBL-2H3) cell line is a commonly used model of allergen dependent immune modulator release (degranulation) in mast cells. On their surface, they express the high affinity receptor for IgE (FcεRI). Upon binding of antigen-specific IgE to the receptor, cells become sensitized to the IgE specific antigen (allergen). When IgE-sensitized cells then encounter multivalent antigen, the antigen clusters IgE-FcεRI complexes and initiates a signal transduction cascade that leads to degranulation, that is, the release of inflammatory mediators, such as cytokines, eicosanoids, histamine and enzymes. The assay can be used as a screening method to identify immune-modulating compounds, in particular compounds useful in the medical management of allergic and inflammatory diseases and asthma, β-hexosaminidase was previously shown to be released with the same kinetics as histamine (Schwartz et al., J Immunology; 123:1445-1450 (1979)), thus offering a simple means to monitor degranulation. […]
MUG substrate solution, 100 μl, were added to supernatant and lysate samples and plates were incubated 30 min at 37° C. […] Fluorescence was measured at 365 nm excitation and 440 nm emission wavelengths. […]

Row | SMILES | local lymph node reaction (lymph node weight and cell number) [1] | pIC50 (RBL-2H3 cells)
1 | CCCCCCCCCCCCCCCCN(C)CC(O)CS(=O)(=O)O (centres unmarked) [Compound 1a, 2-hydroxy-3-(N-methylhexadecylammonio)propane-sulfonate] | did not have any impact | 
2 | CCCCCCCCCCCCN(C)CC(O)CS(=O)(=O)O (centres unmarked) [Compound 1c, 2-hydroxy-3-(N-methyldodecylammonio)propanesulfonate] |  | 5.39

Reference: patent US11453642B2, “Oxygenated amino- or ammonium-containing sulfonic acid, phosphonic acid and carboxylic acid derivatives and their medical use” (GRI BIO, INC., priority 2011, dated 2022)
